The structures appear in SMILES notation. “And” between values parts separate entries of the source, which are not always exact repeats. Equal values may be shown once.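 Method: 48-hour compound exposure of cells in 96-well plates, five concentrations, linear interpolation of endpoints. GI50: concentration for 50% inhibition of growth.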 The source made the active and inactive calls. Rule as the data show it: active = GI50 up to about 1.1 µM and inactive = higher.

The values that follow come from ChEMBL document CHEMBL1201862, “PubChem BioAssay data set” (2004).

Some test systems named below: NCI-H460; DU-145; MDA-MB-435; PC-3; HL-60; SN12C; NCI-H522; MCF7; OVCAR-8; EKVX; SF-539; SK-MEL-28; SK-MEL-5; T47D; CAKI-1; SF-268; HCC 2998; HOP-62; RXF 393; HOP-92.
Common to all, as to experiment: NCI-60 cell line screen, 48 h

Take `Oc1ccc(-c2cc(-c3c(O)cc(O)cc3O)on2)cc1`: the GI50 is 40.3 µM (inactive) in the test with NCI-H460; 53.1 µM (inactive) with DU-145; 56.1 µM (inactive) in the test with MDA-MB-435; 48 µM (inactive) in the test with PC-3; > 100 µM (inactive) with HL-60; 80.5 µM (inactive) in the test with SN12C. For the same molecule, the GI50 in the test on NCI-H522 is 51.6 µM (inactive); in the test on MCF7, 89.5 µM (inactive); in the test on OVCAR-8, 55.6 µM (inactive); with EKVX it was 62.7 µM (inactive); in the test with SF-539, 31.9 µM (inactive); in the test on SK-MEL-28, 52.8 µM (inactive). Moreover, the GI50 was 42.3 µM (inactive) in the test on SK-MEL-5; 45.5 µM (inactive) with T47D; 94.6 µM (inactive) in the test on CAKI-1; 44.3 µM (inactive) in the test with SF-268; 66.4 µM (inactive) in the test on HCC 2998; > 100 µM (inactive) with HOP-62.
For the molecule `O=C(NCCNCCO)N/N=C/c1ccc(Cl)cc1`, the GI50 in the test on NCI-H460, in the test on DU-145, with MDA-MB-435, with PC-3, in the test with HL-60 and in the test on SN12C was > 100 µM (inactive) throughout. Further, the GI50 with NCI-H522, with MCF7, in the test with OVCAR-8, in the test on SF-539, with SK-MEL-28 and in the test on SK-MEL-5 was > 100 µM (inactive) each time. Also, the GI50 in the test with T47D, in the test with CAKI-1, in the test on SF-268, in the test with HCC 2998 and in the test with HOP-62 was > 100 µM (inactive) each time.
Regarding `CSCCCNC(=O)c1csc([C@@H](CSC)NC(=O)CCNC(=O)[C@@H](NC(=O)OCC(Br)(Br)Br)C(C)O)n1` (stereo partly drawn), the GI50 in the test with NCI-H460, in the test with DU-145, with MDA-MB-435, with RXF 393, in the test with PC-3 and with HL-60 was > 100 µM (inactive) throughout. Also, the GI50 in the test on SN12C is > 100 µM (inactive); in the test on NCI-H522 it was > 100 µM (inactive); with MCF7, 94.2 µM (inactive); in the test with OVCAR-8 it was > 100 µM (inactive); in the test with EKVX, 75.5 µM (inactive); in the test on SF-539, > 100 µM (inactive). Further, the GI50 in the test with SK-MEL-28, in the test with SK-MEL-5, with HOP-92, in the test on CAKI-1, with SF-268 and in the test on HCC 2998 was > 100 µM (inactive) in each case. Besides, in the test on HOP-62, the GI50 was > 100 µM (inactive).
Regarding `CSc1csc(-c2ccc(-c3ccc(-c4cc(SC)cs4)s3)s2)c1`, the GI50 in the test with NCI-H460, in the test on MDA-MB-435, in the test with PC-3, in the test on SN12C, in the test on MCF7 and in the test on EKVX was > 100 µM (inactive) throughout. For the same molecule, the GI50 in the test with SF-539, in the test with SK-MEL-28, in the test on SK-MEL-5, in the test on SF-268, in the test on HCC 2998 and in the test on HOP-62 was > 100 µM (inactive) throughout.
`CNC(=S)N/N=C(\C)c1ccc(OC)cc1O`: the GI50 with NCI-H460 is > 100 µM (inactive); in the test on DU-145, > 100 µM (inactive); in the test with MDA-MB-435, > 100 µM (inactive); in the test with RXF 393, > 100 µM (inactive); with PC-3, > 100 µM (inactive); with HL-60 it was 0.841 µM (active). Moreover, the GI50 is > 91.4 µM (inactive) in the test on SN12C; 2.72 µM (inactive) with NCI-H522; > 100 µM (inactive) in the test on OVCAR-8; 82.6 µM (inactive) in the test on EKVX; > 100 µM (inactive) in the test with SF-539; > 100 µM (inactive) in the test on SK-MEL-28. Besides, the GI50 is 7.45 µM (inactive) in the test on SK-MEL-5; > 100 µM (inactive) in the test with T47D; > 100 µM (inactive) in the test with HOP-92; > 100 µM (inactive) with CAKI-1; > 100 µM (inactive) with SF-268; > 100 µM (inactive) in the test with HCC 2998. In addition, in the test with HOP-62, the GI50 is > 100 µM (inactive).
As to `Cn1c(=O)cc(Nc2ccc(N)cc2)[nH]c1=O`, the GI50 with NCI-H460, in the test on MDA-MB-435, in the test with RXF 393, with PC-3, in the test on SN12C and in the test with NCI-H522 was > 100 µM (inactive) throughout. The GI50 in the test on MCF7 is 49.4 µM (inactive); in the test with OVCAR-8, > 100 µM (inactive); with EKVX it was > 100 µM (inactive); in the test on SF-539, > 100 µM (inactive); with SK-MEL-28 it was > 100 µM (inactive); in the test on SK-MEL-5, > 100 µM (inactive). In addition, the GI50 in the test on T47D, with HOP-92, in the test on CAKI-1, in the test on SF-268, with HCC 2998 and in the test with HOP-62 was > 100 µM (inactive) each time.
Turning to `CC(=O)C(C)C(=O)N1C(=O)N(C)C2(C)N(C)C(=O)NC12C` (stereo not drawn), the GI50 in the test with NCI-H460, in the test on DU-145, with MDA-MB-435, with HL-60, with SN12C and with NCI-H522 was > 100 µM (inactive) each time. Also, the GI50 with MCF7, in the test on EKVX, with SF-539, in the test with SK-MEL-28, in the test with SK-MEL-5 and in the test on HOP-92 was > 100 µM (inactive) in each case. Moreover, the GI50 with CAKI-1, in the test on SF-268, in the test with HCC 2998 and in the test with HOP-62 was > 100 µM (inactive) each time.
Consider `COCP1(=S)OC(C)CCN1C(C)C` (stereo not drawn), for which the GI50 in the test on NCI-H460, with DU-145, in the test on MDA-MB-435, in the test with PC-3, in the test with MCF7 and with OVCAR-8 was > 100 µM (inactive) each time. The GI50 with EKVX, in the test on SF-539, with SK-MEL-5, in the test on T47D, in the test with CAKI-1 and in the test with SF-268 was > 100 µM (inactive) in each case. Moreover, the GI50 with HCC 2998 and with HOP-62 was > 100 µM (inactive) each time.
Take `O=C(CC(C(=O)c1cccs1)c1ccsc1)c1ccc(Cl)s1` (stereo not drawn): the GI50 with NCI-H460 was > 100 µM (inactive); with DU-145, > 100 µM (inactive); in the test with MDA-MB-435, 85.7 µM (inactive); in the test with PC-3, > 100 µM (inactive); in the test with HL-60, 75.2 µM (inactive); in the test on SN12C, > 100 µM (inactive). Further, the GI50 in the test on MCF7 was 97.1 µM (inactive); in the test on OVCAR-8 it was > 100 µM (inactive); in the test with EKVX, 50.7 µM (inactive); in the test on SF-539 it was > 100 µM (inactive); with SK-MEL-28, > 100 µM (inactive); in the test on SK-MEL-5 it was 70.3 µM (inactive). The GI50 was 44.3 µM (inactive) with T47D; > 100 µM (inactive) in the test on CAKI-1; > 100 µM (inactive) in the test on SF-268; > 100 µM (inactive) in the test with HCC 2998; > 100 µM (inactive) in the test with HOP-62.
For the molecule `O=c1c(Cl)c(Cl)cnn1-c1ccccc1`, the GI50 in the test on NCI-H460 is 2.92 µM (inactive) and 3.72 µM (inactive); in the test with DU-145, 14.7 µM (inactive) and 12.5 µM (inactive); with MDA-MB-435, 1.79 µM (inactive) and 2.08 µM (inactive); with RXF 393, 1.9 µM (inactive) and 2.52 µM (inactive); in the test on HL-60, 893 nM (active) and 1.09 µM (active); with SN12C, 2.06 µM (inactive) and 3.85 µM (inactive). The GI50 is 1.26 µM (inactive) and 1.84 µM (inactive) with NCI-H522; 4.07 µM (inactive) and 3.31 µM (inactive) in the test on MCF7; 3.85 µM (inactive) and 2.39 µM (inactive) in the test on OVCAR-8; 3.4 µM (inactive) and 2.3 µM (inactive) in the test with SK-MEL-28; 4.33 µM (inactive) and 2.44 µM (inactive) with T47D; 5.05 µM (inactive) and 6.64 µM (inactive) in the test on SF-268. Besides, the GI50 in the test with HCC 2998 was 3.42 µM (inactive) and 3.85 µM (inactive); with HOP-62 it was 15 µM (inactive) and 8.49 µM (inactive).
For `NC(=O)CO/N=C1/C(=C2/C(=O)Nc3ccccc32)Nc2ccccc21`, the GI50 in the test with NCI-H460 was 1.11 µM (active); in the test with DU-145 it was 1.67 µM (inactive); in the test with MDA-MB-435, 21.1 µM (inactive); with RXF 393, 0.491 µM (active); with PC-3 it was > 100 µM (inactive); with HL-60 it was 1.96 µM (inactive). For the same molecule, the GI50 in the test with SN12C is > 100 µM (inactive); in the test with NCI-H522 it was > 100 µM (inactive); in the test with MCF7 it was 1.38 µM (inactive); in the test on OVCAR-8 it was 62.5 µM (inactive); in the test on EKVX, > 100 µM (inactive); in the test with SF-539, > 100 µM (inactive). Moreover, the GI50 in the test with SK-MEL-28 is > 100 µM (inactive); in the test with SK-MEL-5 it was 1.49 µM (inactive); in the test on HOP-92, > 100 µM (inactive); in the test on CAKI-1 it was 0.247 µM (active); with SF-268, > 100 µM (inactive); with HOP-62 it was 22.6 µM (inactive).
With `CN(CCNC(=O)c1cn(C)c2c1ccc1ccccc12)CCNC(=O)c1cn(C)c2c1ccc1ccccc12`, the GI50 with NCI-H460 is 1.85 µM (inactive); with DU-145, 2.1 µM (inactive); in the test on MDA-MB-435 it was 2.2 µM (inactive); with PC-3, 2.42 µM (inactive); in the test on SN12C it was 2.64 µM (inactive); in the test on MCF7, 1.51 µM (inactive). For the same molecule, the GI50 is 27.9 µM (inactive) in the test with OVCAR-8; 2.37 µM (inactive) in the test on EKVX; 1.76 µM (inactive) with SF-539; 1.97 µM (inactive) in the test with SK-MEL-28; 2.6 µM (inactive) in the test on SK-MEL-5; 2.07 µM (inactive) in the test on HOP-92. Also, the GI50 was 2.47 µM (inactive) with CAKI-1, 2.69 µM (inactive) in the test with SF-268, 0.71 µM (active) in the test with HCC 2998 and 1.85 µM (inactive) in the test with HOP-62.
